In the NIST ThermoML archive (doi:10.1016/j.tca.2011.02.043):

Legend:
[1] = DTA
[2] = molar heat capacity at constant pressure; details: 101.33 kPa, Small sample (50 mg) DSC
[3] = Molar enthalpy of transition or fusion; details: DSC

[BH4-].[Li+] [lithium tetrahydroborate]
Details | Molar enthalpy of transition or fusion, [3] [kcal/mol] | Triple point temperature, [1] [K]
Crystal 1 | 1.96 | 553
Crystal 2 | 1.21 | 386.6

[2]
Details | molar heat capacity at constant pressure [J/K/mol]
298 K, Crystal 2 | 81.51
310 K, Crystal 2 | 84.51
320 K, Crystal 2 | 87.33
330 K, Crystal 2 | 89.53
340 K, Crystal 2 | 91.21
350 K, Crystal 2 | 92.47
360 K, Crystal 2 | 95.46
370 K, Crystal 2 | 101.2
380 K, Crystal 2 | 106.02
410 K, Crystal 1 | 91.06
420 K, Crystal 1 | 91.83
430 K, Crystal 1 | 93.09
440 K, Crystal 1 | 94.12
450 K, Crystal 1 | 95.43
460 K, Crystal 1 | 96.7
470 K, Crystal 1 | 97.95
480 K, Crystal 1 | 99.14
490 K, Crystal 1 | 100.69
500 K, Crystal 1 | 101.9
510 K, Crystal 1 | 103.3
520 K, Crystal 1 | 104.78
